From paper PMC5854577, “A common mechanism of proteasome impairment by neurodegenerative disease-associated oligomers” (Nature Communications, 2018)
Starred links: 1 amine or outer side, 2 acyl side, 3 side chain; linkers in the order of their positions; H or OH if unused. Residues, ends and D or L forms follow the SMILES beside them. *: point of attachment. AMC = Cc1cc(=O)oc2cc(N*)ccc12; Suc = O=C(CCC(=O)[*:2])[*:1]

Molecular target: T1, Mammalian 20S proteasome (bovine 20S) (Bos taurus, UniProt Q32KL2+Q3MHN0+Q3T0X5+Q5E987)
T1 construct: gene PSMB5; with Proteasome subunit beta type-1; Proteasome subunit beta type-2; Proteasome subunit beta type-3; Proteasome subunit beta type-4
Assay: fluorogenic peptide hydrolysis
Type: biochemical
Conditions: chymotrypsin-like activity; 100 uM substrate, pH 7.4

## Cc1cc(=O)oc2cc(NC(=O)[C@H](Cc3ccc(O)cc3)NC(=O)[C@@H](NC(=O)[C@H](CC(C)C)NC(=O)[C@H](CC(C)C)NC(=O)CCC(=O)O)C(C)C)ccc12 [suc-LLVY-amc] (Suc-LLVY-{AMC})
  fluorogenic peptide hydrolysis: Proteasome activity (linear rate of LLVY-amc hydrolysis)
